Test results from patent US20030119748A1 (Idun Pharmaceuticals, Inc., priority 1996, published 2003).
Where two headings read alike, the source gives them in different places.

Key:
Type in all cases: biochemical
mICE [1] = biological target: T1, mICE (Mus musculus, UniProt P29452); test: Fluorescence enzyme assay, IC50 for ICE (Example 1A)
T1 sequence (P29452 119-402): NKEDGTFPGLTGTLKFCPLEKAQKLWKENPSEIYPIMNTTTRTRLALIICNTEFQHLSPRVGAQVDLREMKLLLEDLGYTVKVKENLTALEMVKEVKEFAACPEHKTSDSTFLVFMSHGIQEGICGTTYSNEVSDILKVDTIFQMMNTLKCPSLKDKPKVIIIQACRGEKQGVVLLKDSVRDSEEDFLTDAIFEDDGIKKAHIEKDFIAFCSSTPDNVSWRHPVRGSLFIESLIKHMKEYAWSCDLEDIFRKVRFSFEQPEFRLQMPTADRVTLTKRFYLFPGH
Method: (§1) Fluorescence enzyme assays detecting the activity of the compounds of Formula 1 utilizing the recombinant ICE and CPP32 enzymes were performed essentially according to Thomberry et al. (Nature, 356:768:774 (1992)) and Nicholson et al. (Nature, 376:37-43 (1995)) respectively, (herein incorporated by reference) in 96 well microtiter plates. The substrate for these assays was Acetyl-Tyr-Val-Ala-Asp-amino-4-methylcoumarin (AMC) for the ICE assay and Acetyl-Asp-Glu-Val-Asp-amino-4-methylcoumarin for the CPP32 and Mch5 assays. Enzyme reactions were run in ICE buffer (25 mM HEPES, 1 mM EDTA, 0.1% CHAPS, 10% sucrose, pH 7.5) containing 2 mM DTT at room temperature in duplicate. The assays were performed by mixing the following components:
(§2) 50 μl of either ICE, Mch2, Mch5 or CPP32 (18.8, 38, 8.1 and 0.153 nM concentrations, respectively) enzyme in ICE buffer containing either 8.0 (ICE, Mch2, CPP32) or 20 (Mch5) mM DTT;
(§3) 50 μl of either the compound of Formula 1 or ICE buffer (control); and
(§4) 100 μl of 20 μM substrate.
(§5) The enzyme and the compound of Formula 1 to be assayed were preincubated in the microtitre plate wells for 30 minutes at room temperature prior to the addition of substrate to initiate the reaction. Fluorescent AMC product formation was monitored for one hour at room temperature by measuring the fluorescence emission at 460 nm using an excitation wavelength of 360 nm. The fluorescence change in duplicate (control) wells were averaged and the mean values were plotted as a function of inhibitor concentration to determine the inhibitor concentration producing 50% inhibition (IC50).

CPP32 = biological target: T2, CPP32 (Homo sapiens, UniProt P42574); test: Fluorescence enzyme assay, IC50 for CPP32 (Example 1A); settings: Table 1, Formula A; 30 min preincubation, room temperature
T2 sequence (P42574 29-277): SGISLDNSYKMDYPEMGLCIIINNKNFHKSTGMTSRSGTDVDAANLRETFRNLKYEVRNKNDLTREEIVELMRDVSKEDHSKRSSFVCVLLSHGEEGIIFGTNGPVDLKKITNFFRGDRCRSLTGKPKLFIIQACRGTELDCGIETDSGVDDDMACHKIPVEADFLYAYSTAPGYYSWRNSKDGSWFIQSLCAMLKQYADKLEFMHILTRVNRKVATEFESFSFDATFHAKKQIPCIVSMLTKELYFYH
Method: as §1, §2, §3, §4, §5

mICE [2] = biological target: T1, mICE; test: Dissociation constant Ki for irreversible inhibitors, continuous assay (Example 1B); settings: compounds of Formula B and Formula C, procedure of Example 1B
From the text: B. Determination of the Dissociation Constant K1 and Irreversible Rate Constant k3 for Irreversible Inhibitors
For the irreversible inhibition of a ICE/ced-3 Family Protease enzyme with a competitive irreversible inhibitor; using the model represented by the following formulas: [drawing 4]
The product formation at time t may be expressed as: [drawing 5]
where E, I, EI, and E-I denote the active enzyme, inhibitor, non-covalent enzyme-inhibitor complex and covalent enzyme-inhibitor adduct, respectively. The K1 value is the overall dissociation constant of reversible binding steps, and k3 is the irreversible rate constant. The [S] and Ks values are the substrate concentration and the dissociation constant of the substrate bound to the enzyme, respectively. [E]^T is the total enzyme concentration.
The above equations were used to determine the K1 and k3 values of a given inhibitor bound to a ICE/ced-3 family protease. Thus, a continuous assay was run for sixty minutes at various concentrations of the inhibitor and the substrate. The assay was formulated essentially the same as described in Example 1A above, except that the reaction was initiated by adding the enzyme to the substrate-inhibitor mixture. The K1 and k3 values were obtained by simulating the product AMC formation as a function of time according to Equation 1. The reference compound for this assay was Cbz-ValAlaAsp-CH2F.

[3] = Table 1, Formula A, 30 min preincubation, room temperature, read-out: mICE IC50

IC50 (mICE [1]; read-out: IC50 (mICE)) [nM] | IC50 (CPP32) [nM] | IC50 (mICE [1]; [3]) [nM] | SMILES | also measured
< 1000 | – | – | CC(C)Cc1c(C(=O)NC(C(=O)NC(CC(=O)O)C(=O)COc2c(F)c(F)cc(F)c2F)C(C)C)n(C)c2ccccc12 (stereo not drawn) [Example 83, N-[(1-methyl-3-isobutyl-indole-2-cabonyl)valinyl]-3-amino-4-oxo-5-(2,3,5,6-tetrafluorophenyloxy)-pentanoic Acid] | –
< 1000 | – | – | Cc1c(C(=O)NC(C(=O)NC(CC(=O)O)C(=O)COc2c(F)c(F)cc(F)c2F)C(C)C)n(C)c2ccccc12 (stereo not drawn) [Example 109, N-[(1,3-dimethyl-indole-2-cabonyl)valinyl]-3-amino-4-oxo-5-(2,3,5,6-tetrafluorophenyloxy)-pentanoic Acid] | –
< 1000 | – | – | CC(C)Cc1c(C(=O)NC(CC(C)C)C(=O)NC(CC(=O)O)C(=O)COc2c(F)c(F)cc(F)c2F)n(C)c2ccccc12 (stereo not drawn) [Example 92, N-[(1-methyl-3-isobutyl-indole-2-cabonyl)leucinyl]-3-amino-4-oxo-5-(2,3,5,6-tetrafluorophenyloxy)-pentanoic Acid] | –
< 1000 | – | – | CC(C)Cc1c(C(=O)NC(CC2CCCCC2)C(=O)NC(CC(=O)O)C(=O)COc2c(F)c(F)cc(F)c2F)n(C)c2ccccc12 (stereo not drawn) [Example 97, N-[(1-methyl-3-isobutyl-indole-2-cabonyl)cyclohexylalaninyl]-3-amino-4-oxo-5-(2,3,5,6-tetrafluorophenyloxy)-pentanoic Acid] | –
< 1000 | – | – | Cc1c(C(=O)NC(C(=O)NC(CC(=O)O)C(=O)COc2cc3ccccc3cc2-c2ncc[nH]2)C(C)C)n(C)c2ccccc12 (stereo not drawn) [Example 80, N-[(1,3-dimethyl-indole-2-cabonyl)valinyl]-3-amino-5-[3-(imidazol-2-yl)-naphthyl-2-oxy]-4-oxo-pentanoic Acid] | –
< 1000 | – | – | CC(C)C(NC(=O)c1cc2cc(F)ccc2n1C)C(=O)NC(CC(=O)O)C(=O)COc1c(F)c(F)cc(F)c1F (stereo not drawn) [Example 115, N-[(5-fluoro-1-methyl-indole-2-cabonyl)valinyl]-3-amino-4-oxo-5-(2,3,5,6-tetrafluorophenyloxy)-pentanoic Acid] | –
< 1000 | – | – | CC(C)C(NC(=O)c1cc2ccccc2n1CC(=O)O)C(=O)NC(CC(=O)O)C(=O)COc1c(F)c(F)cc(F)c1F (stereo not drawn) [Example 118, N-{[1-(carboxymethyl)-indole-2-cabonyl]valinyl}-3-amino-4-oxo-5-(2,3,5,6-tetrafluorophenyloxy)-pentanoic Acid] | –
< 1000 | – | – | CC(C)C(NC(=O)c1cc2ccccc2n1C)C(=O)NC(CC(=O)O)C(=O)COc1c(F)c(F)cc(F)c1F (stereo not drawn) [Example 112, N-[(1-methyl-indole-2-cabonyl)valinyl]-3-amino-4-oxo-5-(2,3,5,6-tetrafluorophenyloxy)-pentanoic Acid] | –
< 1000 | – | – | CC(C)Cc1c(C(=O)NC(CC(C)C)C(=O)NC(CC(=O)O)C(=O)COP(=O)(c2ccccc2)c2ccccc2)n(C)c2ccccc12 (stereo not drawn) [Example 94, N-[(1-methyl-3-isobutyl-indole-2-cabonyl)leucinyl]-3-amino-5-(diphenylphosphoroxy)-4-oxo-pentanoic Acid] | –
< 1000 | – | – | CC(C)Cc1c(C(=O)NC(CC2CCCCC2)C(=O)NC(CC(=O)O)C(=O)COc2cc(C(F)(F)F)nn2-c2ccccc2)n(C)c2ccccc12 (stereo not drawn) [Example 101, N-[(1-methyl-3-isobutyl-indole-2-cabonyl)cyclohexylalaninyl]-3-amino-4-oxo-5-[1-phenyl-3-(trifluoromethyl)pyrazol-5-yloxy]-pentanoic Acid] | –
– | 5620 | 5520 | CC(C)C[C@H](NC(=O)c1cc2ccccc2n1C)C(=O)N[C@H](C=O)CC(=O)O [Example 13, (3S)-3-[(1-Methylindole-2-Carbonyl)Leucinyl]Amino-4-Oxo-Butanoic Acid] | –
< 1000 | – | – | CC(C)Cc1c(C(=O)NC(C(=O)NC(CC(=O)O)C(=O)COc2ccccc2F)C(C)C)n(C)c2ccccc12 (stereo not drawn) [Example 87, N-[(1-methyl-3-isobutyl-indole-2-cabonyl)valinyl]-3-amino-4-oxo-5-(2-fluorophenyloxy)-pentanoic Acid] | –
< 1000 | – | – | CC(C)Cc1c(C(=O)NC(CC(C)C)C(=O)NC(CC(=O)O)C(=O)COC(=O)c2c(Cl)cccc2Cl)n(C)c2ccccc12 (stereo not drawn) [Example 90, N-[(1-methyl-3-isobutyl-indole-2-cabonyl)leucinyl]-3-amino-5-(2,6-dichlorobenzoyl) oxy-4-oxo Pentanoic Acid] | –

Second part, the compound before the results:

SMILES | IC50 (mICE [1]; read-out: IC50 (mICE)) [nM] | IC50 (CPP32) [nM] | IC50 (mICE [1]; [3]) [nM] | also measured
Cn1c(C(=O)NCC(=O)N[C@H](C=O)CC(=O)O)cc2ccccc21 [Example 21, (3S)-3-[(1-Methylindole-2-Carbonyl)Glycinyl]-Amino-4-Oxo-Butanoic Acid] | – | > 50000 | 34700 | –
CC(NC(=O)c1cc2ccccc2n1CC(=O)O)C(=O)N[C@H](C=O)CC(=O)O (stereo partly drawn) [Example 30, (3S)-3-[(1-(Carboxymethyl)Indole-2-Carbonyl)Alaninyl] Amino-4-Oxobutanoic Acid] | – | > 50000 | 1630 | –
CC(C)Cc1c(C(=O)NC(CC2CCCCC2)C(=O)NC(CC(=O)O)C(=O)COC(=O)c2c(Cl)cccc2Cl)n(C)c2ccccc12 (stereo not drawn) [Example 99] | < 1000 | – | – | –
CC(NC(=O)c1cc2ccccc2n1CCC(=O)O)C(=O)NC(C=O)CC(=O)O [Example 33, (3S)-3-(1-(2′-Carboxyethyl)Indole-2-Carbonyl)Alaninyl] Amino-4-Oxobutanoic Acid] | – | > 50000 | 198 | –
CC(C)[C@H](NC(=O)c1cc2ccccc2n1CC(=O)O)C(=O)NC(CC(=O)O)C(=O)CF (stereo partly drawn) [Example 58, N-[(1-(Carboxymethyl)Indole-2-Carbonyl)Valinyl]-3-Amino-4-Oxo-5-Fluoropentanoic Acid] | – | – | – | Ki (mICE [2]): < 1000 nM
CC(C)[C@H](NC(=O)c1cc2ccccc2n1-c1ccccc1)C(=O)NC(CC(=O)O)C(=O)CF (stereo partly drawn) [Example 55, N-[(1-Phenylindole-2-Carbonyl)Valinyl]-3-Amino-4-Oxo-5-Fluoropentanoic Acid] | – | – | – | Ki (mICE [2]): < 1000 nM
C[C@H](NC(=O)c1cc2ccccc2n1Cc1ccccc1)C(=O)N[C@H](C=O)CC(=O)O [Example 24, (3S)-3-[(1-Benzylindole-2-Carbonyl)Alaninyl]Amino-4-Oxo-Butanoic Acid] | – | > 50000 | 393 | –
C=CCCn1c(C(=O)NC(C(=O)NC(C=O)CC(=O)O)C(C)C)cc2ccccc21 [Example 27, (3S)-3-[(1-(4′-Butenyl)indole-2-Carbonyl)Valinyl]Amino-4-Oxobutanoic Acid] | – | 1450 | 313 | –
Cn1c(C(=O)N2CCC[C@H]2C(=O)N[C@H](C=O)CC(=O)O)cc2ccccc21 [Example 7, (3S)-3-[(1-Methylindole-2-Carbonyl)Prolinyl]Amino-4-Oxo-Butanoic Acid] | – | > 50000 | 11700 | –
CC(C)C(NC(=O)c1cc2ccccc2n1C)C(=O)NC(C=O)CC(=O)O [Example 10, (3S)-3-[1-Methylindole-2-Carbonyl)Vainyl]Amino-4-Oxo-Butanoic Acid] | – | 2480 | 531 | –
C[C@H](NC(=O)c1cc2ccccc2n1C)C(=O)N[C@H](C=O)CC(=O)O [Example 4, (3S)-3-[(1-Methylindole-2-Carbonyl)Alaninyl]Amino-4-Oxobutanoic Acid] | – | > 10000 | 177 | –
